{
  "source": "patent US7482149B2",
  "about": "(priority 2003, dated 2009)",
  "key": {"[1]": {"system": "Herpes and poxviruses", "details": "cited from earlier work"}, "[2]": {"system": "Influenza virus", "details": "cited from earlier work"}, "[3]": {"system": "SARS-CoV", "details": "ribavirin concentrations that inhibit other sensitive viruses; preliminary; cited from earlier work"}, "[4]": {"system": "Vero E6 cells"}, "[5]": {"system": "HIV and other retroviruses", "details": "cited from earlier work"}, "[6]": {"system": "SARS-CoV", "assay_type": "cell-based"}, "[7]": {"system": "Cytomegalovirus", "details": "cited from earlier work"}, "[8]": {"system": "Herpes simplex virus and varicella-zoster virus", "details": "cited from earlier work"}, "[9]": {"system": "HIV", "details": "cited from earlier work"}, "[10]": {"system": "Herpes simplex mutants", "details": "cited from earlier work"}, "[11]": {"details": "complete (100%) inhibition of CPE up to highest concentration tested, 10,000 PFU/well, MOI 0.5, Vero E6"}},
  "note": "Like-named read-outs stand apart in the source and are kept apart here.",
  "data": [
    {"molecule": "NC(=O)c1ncn([C@@H]2O[C@H](CO)[C@@H](O)[C@H]2O)n1", "note": "[Ribavirin]", "values": [
      {"measurement": "MIC", "setting": "[1]", "value": "3.2 to 50", "unit": "µg/mL"},
      {"measurement": "IC50", "setting": "[2]", "value": "1 to 25", "unit": "µg/mL"},
      {"measurement": "inhibition of replication or cell-to-cell spread of the SARS-CoV", "setting": "[3]", "value": "do not inhibit"},
      {"measurement": "cytotoxicity", "setting": "[4]", "value": "slight cytotoxicity"},
      {"measurement": "concentrations at which cytotoxic effects were observed", "setting": "[4]; African green monkey", "value": "0.2 to 1", "unit": "mg/mL"},
      {"measurement": "IC50", "setting": "[5]", "value": "25 to 100", "unit": "µg/mL"},
      {"measurement": "concentrations showing inhibitory activity", "setting": "[6]; all three viral loads", "value": "0.5 to 5", "unit": "mg/mL"},
      {"measurement": "Inhibition of Cytopathic Effect", "setting": "[6]; [11]", "value": "Yes"},
      {"measurement": "Complete inhibition of cytopathic effect (CIA100)", "setting": "[6]; virus load 100 PFU/well", "value": "1,000 μg/mL"},
      {"measurement": "Complete inhibition of cytopathic effect (CIA100)", "setting": "[6]; virus load 1,000 PFU/well", "value": "10,000 μg/mL"},
      {"measurement": "Complete inhibition of cytopathic effect (CIA100)", "setting": "[6]; virus load 10,000 PFU/well", "value": "5,000 μg/mL"},
      {"measurement": "Complete inhibition of cytopathic effect (CIA100)", "setting": "[6]; virus load 10,000 PFU/well, listed as Ribavarin", "value": "10,000 μg/mL"}
    ]},
    {"molecule": "Nc1nc(O)c2ncn(COC(CO)CO)c2n1", "note": "[Cymevene, Ganciclovir]", "values": [
      {"measurement": "Inhibition of Cytopathic Effect", "setting": "[6]", "value": "No"},
      {"measurement": "IC50", "setting": "[7]", "value": "0.02 to 3.48", "unit": "µg/mL"}
    ]},
    {"molecule": "Nc1nc2c(ncn2COCCO)c(=O)[nH]1", "note": "[Acyclovir]", "values": [
      {"measurement": "IC50", "setting": "[8]", "value": "0.01 to 13.5", "unit": "µg/mL"},
      {"measurement": "Inhibition of Cytopathic Effect", "setting": "[6]", "value": "No"}
    ]},
    {"molecule": "CC(=O)N[C@H]1[C@H]([C@H](O)[C@H](O)CO)OC(C(=O)O)=C[C@@H]1N=C(N)N", "note": "[Zanamivir]", "values": [
      {"measurement": "IC50", "setting": "[2]; read-out: IC50", "value": "0.005 to 16", "unit": "µM"},
      {"measurement": "Inhibition of Cytopathic Effect", "setting": "[6]", "value": "No"}
    ]},
    {"molecule": "Interferon α2b", "values": [
      {"measurement": "Inhibition of Cytopathic Effect", "setting": "[6]", "value": "No"}
    ]},
    {"molecule": "Cc1cn([C@H]2C[C@H](N=[N+]=[N-])[C@@H](CO)O2)c(=O)[nH]c1=O", "note": "[Zidovudine]", "values": [
      {"measurement": "IC50", "setting": "[9]", "value": "3 to 13", "unit": "ng/mL"},
      {"measurement": "Inhibition of Cytopathic Effect", "setting": "[6]; [11]", "value": "No"}
    ]},
    {"molecule": "CC(C)(C)NC(=O)[C@@H]1C[C@@H]2CCCC[C@@H]2CN1C[C@@H](O)[C@H](Cc1ccccc1)NC(=O)[C@H](CC(N)=O)NC(=O)c1ccc2ccccc2n1", "note": "[Saquinavir]", "values": [
      {"measurement": "IC50", "setting": "[9]; read-out: IC50", "value": "1 to 30", "unit": "nM"},
      {"measurement": "Inhibition of Cytopathic Effect", "setting": "[6]", "value": "No"}
    ]},
    {"molecule": "NC12CC3CC(CC(C3)C1)C2", "note": "[Amantadine]", "values": [
      {"measurement": "Inhibition of Cytopathic Effect", "setting": "[6]", "value": "No"}
    ]},
    {"molecule": "Cc1c(O)cccc1C(=O)N[C@@H](CSc1ccccc1)[C@H](O)CN1C[C@H]2CCCC[C@H]2C[C@H]1C(=O)NC(C)(C)C", "note": "[Nelfinavir]", "values": [
      {"measurement": "EC95", "setting": "[9]", "value": "7 to 196", "unit": "nM"},
      {"measurement": "Inhibition of Cytopathic Effect", "setting": "[6]", "value": "No"}
    ]},
    {"molecule": "CC(C)(C)NC(=O)[C@@H]1CN(Cc2cccnc2)CCN1C[C@@H](O)C[C@@H](Cc1ccccc1)C(=O)N[C@H]1c2ccccc2C[C@H]1O", "note": "[Indinavir]", "values": [
      {"measurement": "IC50", "setting": "[9]; read-out: IC50", "value": "25 to 100", "unit": "nM"},
      {"measurement": "Inhibition of Cytopathic Effect", "setting": "[6]; [11]", "value": "No"}
    ]},
    {"molecule": "CCOC(=O)C1=C[C@@H](OC(CC)CC)[C@H](NC(C)=O)[C@@H](N)C1", "note": "[Oseltamivir]", "values": [
      {"measurement": "Inhibition of Cytopathic Effect", "setting": "[6]", "value": "No"}
    ]},
    {"molecule": "O=C(O)P(=O)(O)O", "note": "[Foscarnet]", "values": [
      {"measurement": "Inhibition of Cytopathic Effect", "setting": "[6]", "value": "No"},
      {"measurement": "IC50", "setting": "[7]; read-out: IC50", "value": "50 to 800", "unit": "µM"},
      {"measurement": "IC50", "setting": "[10]", "value": "5 to 443", "unit": "µM"}
    ]}
  ]
}
